Test results: patent publication US5006515A, “Pharmaceuticals, phosphorus-containing 2-isoxazolines and isoxazoles contained therein” (Hoechst Aktiengesellschaft, priority 1987, dated 1991)

Legend:
Staphylococcus aureus = Staphylococcus aureus infection of immunosuppressed mice; format: in vivo, female B6D2F1 mice; details: up to day 45
Excerpt: It is known that distinct immunosuppression can be induced in experimental animals by multiple administration of a cytostatic and is expressed by an increased susceptibility to infection with a drastic rise in mortality. […] Another group of infected animals which had not, however, been immunosuppressed by pretreatment with ADM was included as negative control. The immunosuppressed animals in the three active product groups received, on 4 consecutive days starting one day before the infection, the test substance, with intraperitoneal doses each of 0.1, 1 or 10 mg/kg being administered. Each experimental group comprised 20 animals.

peritoneal macrophages [1] = experiment: Stimulation of the release of lysosomal enzymes from peritoneal macrophages (exocytosis); details: for Enzyme activity N-Ac-Glu / Enzyme activity β-Gal / Enzyme activity β-Glu: single dose
[2] = test system: antibodies against tetanus toxoid; experiment: Antibody response of the mouse to tetanus toxoid (ELISA); format: in vivo, female NMRI mice; details: 20-day value
Experimental: (§1) Groups each containing 5 female NMRI mice with a body weight of 18 to 20 g were formed, and each of the animals received either intravenous administration of 10^8 heat-killed E coli bacteria or 300 Lf (limes of flocculation) of tetanus toxoid. Oral administration of the test substance in physiological saline (PBS) in doses of 5, 10, 20, 40 or 80 mg/kg, or of the pure vehicle (control groups), was carried out at the same time as administration of the antigen. After 10 and 20 days, blood was taken from the retroorbital venous plexus of the mice and, in the sera obtained therefrom, the IgG and IgM antibodies against E. coli organisms and tetanus toxoid were determined with the aid of the ELISA technique known to those skilled in the art, using homologous lipopolysaccharide from E. coli and tetanus toxoid, respectively, as antigen. The magnitude of the extinctions measured in the photometer is a measure of the amount of antibodies formed.

Listeria monocytogenes = experiment: Mortality and organ colonization in mice infected with Listeria monocytogenes; format: in vivo, female NMRI mice; details: 4 × 10 mg/kg i.p.
Excerpt: Female NMRI mice (10 animals/group) were infected with a low dose of Listeria monocytogenes (2×10^2).

peritoneal macrophages [3] = experiment: Activation of peritoneal macrophages: chemiluminescence (oxidative metabolism); details: for Chemiluminescence: single dose
Acute toxicity = experiment: Acute toxicity; set-up: species or system mice; details: mouse, in vivo, iv, single dose, mortality within 7 days
Experimental: The LD50 values were determined by the standard method via the mortality occurring within 7 days in NMRI (Naval Medical Research Institute) mice (6 animals per dose) after a single intraperitoneal (i.p.) or intravenous (i.v.) dose.

[4] = test system: antibodies against E. coli organisms; experiment: Antibody response of the mouse to dead E. coli organisms (ELISA); format: in vivo, female NMRI mice; details: for Antibody response to dead E. coli organisms, IgM: 10-day value; for Antibody response to dead E. coli organisms, IgG: 20-day value
Experimental: as §1

leucine aminopeptidase = experiment: Inhibition of leucine aminopeptidase; format: biochemical; details: substrate L-leucine 4-nitroanilide
Experimental: The activity of the enzyme aminopeptidase B was determined photometrically using the substrate L-lysine 2-naphthylamide at room temperature. […] In the same way, the inhibition of leucine aminopeptidase was investigated using L-leucine 4-nitroanilide as enzyme substrate. The IC50 values are compiled in Table 6.

[5] = test system: DTH reaction to sheep erythrocytes; experiment: Delayed-type hypersensitivity (DTH) reaction to sheep erythrocytes; format: in vivo, female NMRI mice
Experimental: Groups each comprising 5 female NMRI mice with a body weight of 18 to 20 g were formed, and each animal was given 10^6 or 10^9 sheep red blood cells intravenously. Sheep erythrocytes are regarded in immunology as a standard antigen with which it is possible to check cellular and humoral immunoreactivity, especially the functioning of the T-cell-dependent component of the immune system, the so-called T-helper cells. The test substances were administered, in intraperitoneal doses of 5 to 100 mg/kg in physiological saline, at the same time as the antigen. After 5 days, each animal was given an injection of 2×10^8 sheep erythrocytes into the footpad. 24 hours later, the swelling of the foot was measured. The foot swelling is induced by a skin reaction of the delayed type (DTH reaction) and, as is known to those skilled in the art, is a measure of the cellular immune response (J. Immunol. 101 (1968), 830-845). The test results obtained with the product of Example 34, by way of example, are compiled in Table 7 and illustrate that the compounds of the formula I--administered prophylactically--are able to increase the cellular immune response after immunization with the antigen by stimulation of the T-cell system, with the stimulant action reaching its optimum in this experiment at a dose of 25 mg/kg.

SMILES: O=P(O)(O)C1CC(c2ccccc2)=NO1 (racemic) [Example 34, 3-Phenyl-2-isoxazolin-5-ylphosphonic acid]
- Mortality (Staphylococcus aureus; 0.1 mg/kg 4 × i.p.): 5/20
- Mortality (Staphylococcus aureus; 1.0 mg/kg 4 × i.p.): 8/20
- Mortality (Staphylococcus aureus; 10.0 mg/kg 4 × i.p.): 8/20
- Enzyme activity N-Ac-Glu (peritoneal macrophages [1]; 5 mg/kg i.p.): 2607 mU/ml
- Enzyme activity β-Gal (peritoneal macrophages [1]; 5 mg/kg i.p.): 2357 mU/ml
- Enzyme activity β-Glu (peritoneal macrophages [1]; 5 mg/kg i.p.): 1197 mU/ml
- Enzyme activity N-Ac-Glu (peritoneal macrophages [1]; 5 mg/kg p.o.): 2071 mU/ml
- Enzyme activity β-Gal (peritoneal macrophages [1]; 5 mg/kg p.o.): 2216 mU/ml
- Enzyme activity β-Glu (peritoneal macrophages [1]; 5 mg/kg p.o.): 973 mU/ml
- Enzyme activity N-Ac-Glu (peritoneal macrophages [1]; 10 mg/kg i.p.): 4822 mU/ml
- Enzyme activity β-Gal (peritoneal macrophages [1]; 10 mg/kg i.p.): 3956 mU/ml
- Enzyme activity β-Glu (peritoneal macrophages [1]; 10 mg/kg i.p.): 1542 mU/ml
- Enzyme activity N-Ac-Glu (peritoneal macrophages [1]; 10 mg/kg p.o.): 4283 mU/ml
- Enzyme activity β-Gal (peritoneal macrophages [1]; 10 mg/kg p.o.): 3513 mU/ml
- Enzyme activity β-Glu (peritoneal macrophages [1]; 10 mg/kg p.o.): 1393 mU/ml
- Enzyme activity N-Ac-Glu (peritoneal macrophages [1]; 20 mg/kg i.p.): 6812 mU/ml
- Enzyme activity β-Gal (peritoneal macrophages [1]; 20 mg/kg i.p.): 6918 mU/ml
- Enzyme activity β-Glu (peritoneal macrophages [1]; 20 mg/kg i.p.): 2067 mU/ml
- Enzyme activity N-Ac-Glu (peritoneal macrophages [1]; 20 mg/kg p.o.): 6128 mU/ml
- Enzyme activity β-Gal (peritoneal macrophages [1]; 20 mg/kg p.o.): 6011 mU/ml
- Enzyme activity β-Glu (peritoneal macrophages [1]; 20 mg/kg p.o.): 1979 mU/ml
- Enzyme activity N-Ac-Glu (peritoneal macrophages [1]; 40 mg/kg i.p.): 9281 mU/ml
- Enzyme activity β-Gal (peritoneal macrophages [1]; 40 mg/kg i.p.): 9318 mU/ml
- Enzyme activity β-Glu (peritoneal macrophages [1]; 40 mg/kg i.p.): 2547 mU/ml
- Enzyme activity N-Ac-Glu (peritoneal macrophages [1]; 40 mg/kg p.o.): 8432 mU/ml
- Enzyme activity β-Gal (peritoneal macrophages [1]; 40 mg/kg p.o.): 9262 mU/ml
- Enzyme activity β-Glu (peritoneal macrophages [1]; 40 mg/kg p.o.): 2286 mU/ml
- release of acid hydrolases, in words (peritoneal macrophages [1]; i.p. or oral): increased as a function of the dose
- Antibody response to tetanus toxoid, IgG ([2]; 5 mg/kg 1 × p.o.): 865 ± 182 mE492nm
- Antibody response to tetanus toxoid, IgG ([2]; 10 mg/kg 1 × p.o.): 1213 ± 255 mE492nm
- Antibody response to tetanus toxoid, IgG ([2]; 20 mg/kg 1 × p.o.): 1852 ± 261 mE492nm
- Antibody response to tetanus toxoid, IgG ([2]; 40 mg/kg 1 × p.o.): 1357 ± 348 mE492nm
- Antibody response to tetanus toxoid, IgG ([2]; 80 mg/kg 1 × p.o.): 1154 ± 232 mE492nm
- survival of the second infection (Listeria monocytogenes): survived the second infection
- % of surviving animals with organisms in the liver (Listeria monocytogenes; 5 days after second infection): 20%
- Mortality after secondary infection (Listeria monocytogenes; second infection 10^6 organisms): 0/10
- Chemiluminescence (peritoneal macrophages [3]; 5 mg/kg i.p.): 842 ± 42 RLU/15 min × 10^3
- Chemiluminescence (peritoneal macrophages [3]; 5 mg/kg p.o.): 728 ± 101 RLU/15 min × 10^3
- Chemiluminescence (peritoneal macrophages [3]; 10 mg/kg i.p.): 2842 ± 223 RLU/15 min × 10^3
- Chemiluminescence (peritoneal macrophages [3]; 10 mg/kg p.o.): 2140 ± 156 RLU/15 min × 10^3
- Chemiluminescence (peritoneal macrophages [3]; 20 mg/kg i.p.): 4935 ± 516 RLU/15 min × 10^3
- Chemiluminescence (peritoneal macrophages [3]; 20 mg/kg p.o.): 3286 ± 283 RLU/15 min × 10^3
- Chemiluminescence (peritoneal macrophages [3]; 40 mg/kg i.p.): 6990 ± 290 RLU/15 min × 10^3
- Chemiluminescence (peritoneal macrophages [3]; 40 mg/kg p.o.): 4405 ± 197 RLU/15 min × 10^3
- chemiluminescence, in words (peritoneal macrophages [3]; i.p. and p.o.): pronounced dose-dependent increase in chemiluminescence
- LD50 at 168 h (Acute toxicity): 200 to 300 mg/kg
- Antibody response to dead E. coli organisms, IgM ([4]; 5 mg/kg 1 × p.o.): 1217 ± 264 mE492nm
- Antibody response to dead E. coli organisms, IgG ([4]; 5 mg/kg 1 × p.o.): 1377 ± 324 mE492nm
- Antibody response to dead E. coli organisms, IgM ([4]; 10 mg/kg 1 × p.o.): 1411 ± 179 mE492nm
- Antibody response to dead E. coli organisms, IgG ([4]; 10 mg/kg 1 × p.o.): 1663 ± 191 mE492nm
- Antibody response to dead E. coli organisms, IgM ([4]; 20 mg/kg 1 × p.o.): 1657 ± 231 mE492nm
- Antibody response to dead E. coli organisms, IgG ([4]; 20 mg/kg 1 × p.o.): 1951 ± 468 mE492nm
- Antibody response to dead E. coli organisms, IgM ([4]; 40 mg/kg 1 × p.o.): 1523 ± 288 mE492nm
- Antibody response to dead E. coli organisms, IgG ([4]; 40 mg/kg 1 × p.o.): 2434 ± 312 mE492nm
- Antibody response to dead E. coli organisms, IgM ([4]; 80 mg/kg 1 × p.o.): 1459 ± 208 mE492nm
- Antibody response to dead E. coli organisms, IgG ([4]; 80 mg/kg 1 × p.o.): 2217 ± 273 mE492nm
- Leucine aminopeptidase IC50 (leucine aminopeptidase): 24 μug/ml
- % Foot swelling after immunization ([5]; 10^6 erythrocytes, 5.0 mg/kg 1x i.p.): 25.3 ± 5.8%
- % Foot swelling after immunization ([5]; 10^6 erythrocytes, 10.0 mg/kg 1x i.p.): 28.9 ± 7.7%
- % Foot swelling after immunization ([5]; 10^6 erythrocytes, 12.5 mg/kg 1x i.p.): 29.9 ± 3.5%
- % Foot swelling after immunization ([5]; 10^6 erythrocytes, 20.0 mg/kg 1x i.p.): 32.5 ± 3.0%
- % Foot swelling after immunization ([5]; 10^6 erythrocytes, 25.0 mg/kg 1x i.p.): 33.7 ± 6.6%
- % Foot swelling after immunization ([5]; 10^6 erythrocytes, 40.0 mg/kg 1x i.p.): 29.7 ± 4.7%
- % Foot swelling after immunization ([5]; 10^6 erythrocytes, 50.0 mg/kg 1x i.p.): 29.2 ± 6.9%
- % Foot swelling after immunization ([5]; 10^6 erythrocytes, 100.0 mg/kg 1x i.p.): 27.3 ± 4.6%
- % Foot swelling after immunization ([5]; 10^9 erythrocytes, 5.0 mg/kg 1x i.p.): 22.8 ± 3.5%
- % Foot swelling after immunization ([5]; 10^9 erythrocytes, 10.0 mg/kg 1x i.p.): 24.1 ± 5.7%
- % Foot swelling after immunization ([5]; 10^9 erythrocytes, 12.5 mg/kg 1x i.p.): 26.1 ± 8.9%
- % Foot swelling after immunization ([5]; 10^9 erythrocytes, 20.0 mg/kg 1x i.p.): 30.5 ± 6.5%
- % Foot swelling after immunization ([5]; 10^9 erythrocytes, 25.0 mg/kg 1x i.p.): 34.1 ± 7.4%
- % Foot swelling after immunization ([5]; 10^9 erythrocytes, 40.0 mg/kg 1x i.p.): 32.8 ± 5.6%
- % Foot swelling after immunization ([5]; 10^9 erythrocytes, 50.0 mg/kg 1x i.p.): 28.1 ± 4.1%
- % Foot swelling after immunization ([5]; 10^9 erythrocytes, 100.0 mg/kg 1x i.p.): 26.6 ± 5.0%
- dose at which the stimulant action (DTH reaction) reaches its optimum ([5]; i.p.): 25 mg/kg
- Relative stimulation of the DTH reaction ([5]; single i.p. dose of 40 mg/kg, maximal stimulation by Example 34 = 100%): 100%
